Several values for one entry are separate records, joined by “and”; a condition that tells them apart may be missing. Equal values may be shown once. Toxic doses and inconclusive results are not listed.
Tested on: L1210 leukemia ip in BDF1 mice, survival T/C
Assay: NCI In Vivo Anticancer Drug Screen. Data for tumor model L1210 Leukemia (intraperitoneal) in B6D2F1 (BDF1) mice
Conditions: endpoint: mean survival time, higher = longer survival
How it was run: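 Read-out is survival time, reported as the treated-group measurement over the vehicle-control measurement.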

[1] = dose: 100.0 mg/kg/injection, schedule: Q01DX009 (ip), vehicle: saline with Tween-80
[2] = dose: 200.0 mg/kg/injection, schedule: Q01DX009 (ip), vehicle: saline with Tween-80
[3] = dose: 100.0 mg/kg/injection, schedule: Q04DX003 (ip), vehicle: saline with Tween-80
[4] = dose: 200.0 mg/kg/injection, schedule: Q04DX003 (ip), vehicle: saline with Tween-80
[5] = dose: 400.0 mg/kg/injection, schedule: Q04DX003 (ip), vehicle: saline with Tween-80
[6] = dose: 100.0 mg/kg/injection, schedule: Q01DX001 (ip), vehicle: saline
[7] = dose: 200.0 mg/kg/injection, schedule: Q01DX001 (ip), vehicle: saline
[8] = dose: 400.0 mg/kg/injection, schedule: Q01DX001 (ip), vehicle: saline
[9] = dose: 50.0 mg/kg/injection, schedule: Q01DX001 (ip), vehicle: carboxymethylcellulose (CMC)
[10] = dose: 100.0 mg/kg/injection, schedule: Q01DX001 (ip), vehicle: carboxymethylcellulose (CMC)
[11] = dose: 100.0 mg/kg/injection, schedule: Q01DX009 (ip), vehicle: Klucel (hydroxypropylcellulose) (HPC)
[12] = dose: 200.0 mg/kg/injection, schedule: Q01DX009 (ip), vehicle: Klucel (hydroxypropylcellulose) (HPC)
[13] = dose: 400.0 mg/kg/injection, schedule: Q01DX009 (ip), vehicle: Klucel (hydroxypropylcellulose) (HPC)
[14] = dose: 100.0 mg/kg/injection, schedule: Q04DX002 (ip), vehicle: Klucel (hydroxypropylcellulose) (HPC)
[15] = dose: 100.0 mg/kg/injection, schedule: Q04DX003 (ip), vehicle: Klucel (hydroxypropylcellulose) (HPC)
[16] = dose: 200.0 mg/kg/injection, schedule: Q04DX003 (ip), vehicle: Klucel (hydroxypropylcellulose) (HPC)
[17] = dose: 400.0 mg/kg/injection, schedule: Q04DX003 (ip), vehicle: Klucel (hydroxypropylcellulose) (HPC)
[18] = dose: 25.0 mg/kg/injection, schedule: Q01DX009 (ip), vehicle: Klucel (hydroxypropylcellulose) (HPC)
[19] = dose: 50.0 mg/kg/injection, schedule: Q01DX009 (ip), vehicle: Klucel (hydroxypropylcellulose) (HPC)
[20] = dose: 50.0 mg/kg/injection, schedule: Q04DX003 (ip), vehicle: Klucel (hydroxypropylcellulose) (HPC)
[21] = dose: 200.0 mg/kg/injection, schedule: Q01DX001 (ip), vehicle: carboxymethylcellulose (CMC)
[22] = dose: 400.0 mg/kg/injection, schedule: Q01DX001 (ip), vehicle: carboxymethylcellulose (CMC)

With CC(=O)Nc1c(CCCCc2ccccc2)[nH]c(=O)[nH]c1=O the T/C (dose: 25.0 mg/kg/injection, schedule: Q01DX001 (ip), vehicle: Klucel (hydroxypropylcellulose) (HPC)) was 101 % of control, the T/C (dose: 50.0 mg/kg/injection, schedule: Q01DX001 (ip), vehicle: Klucel (hydroxypropylcellulose) (HPC)) was 92 % of control and the T/C (dose: 100.0 mg/kg/injection, schedule: Q01DX001 (ip), vehicle: Klucel (hydroxypropylcellulose) (HPC)) was 99 % of control and 101 % of control.

CC1SC(=S)N(c2ccccc2)C1=O (configuration not stated) was tested, and the T/C [1] was 92 % of control and the T/C [2] was 106 % of control.

CC(=O)OC1CCC2(C)C(=CCC3C2CCC2(C)C3CC(SCC(=O)O)C2SCC(=O)O)C1 (configuration not stated) was tested, and the T/C (dose: 100.0 mg/kg/injection, schedule: Q04DX003 (sc), vehicle: steriod suspending solution) was 98 % of control, the T/C (dose: 200.0 mg/kg/injection, schedule: Q04DX003 (sc), vehicle: steriod suspending solution) was 106 % of control and the T/C (dose: 400.0 mg/kg/injection, schedule: Q04DX003 (sc), vehicle: steriod suspending solution) was 106 % of control.

In the case of N#CC(=C1C=CC(=NO)C=C1)c1ccc(Cl)cc1, the T/C [1] is reported as 97 % of control, the T/C [3] is reported as 96 % of control and the T/C [2] is reported as 100 % of control. For the same compound, the T/C [4] was 107 % of control, the T/C (dose: 400.0 mg/kg/injection, schedule: Q01DX009 (ip), vehicle: saline with Tween-80) was 103 % of control and the T/C [5] was 91 % of control.

In the case of c1ccc(CCN2CCCCC2)cc1, the T/C (dose: 10.0 mg/kg/injection, schedule: Q01DX001 (ip), vehicle: saline) is reported as 95 % of control, the T/C (dose: 20.0 mg/kg/injection, schedule: Q01DX001 (ip), vehicle: saline) is reported as 116 % of control and the T/C (dose: 40.0 mg/kg/injection, schedule: Q01DX001 (ip), vehicle: saline) is reported as 96 % of control.

With N/N=C(/C(=O)c1ccccc1)c1ccccc1 the T/C [6] was 102 % of control, the T/C [3] was 100 % of control and the T/C [7] was 96 % of control. For the same compound, the T/C [4] was 95 % of control, the T/C [8] was 96 % of control and the T/C [5] was 100 % of control.

With CSC(N)=NC#N the T/C (dose: 100.0 mg/kg/injection, schedule: Q04DX002 (ip), vehicle: other) was 111 % of control, the T/C (dose: 200.0 mg/kg/injection, schedule: Q04DX002 (ip), vehicle: other) was 93 % of control and the T/C (dose: 400.0 mg/kg/injection, schedule: Q04DX002 (ip), vehicle: other) was 107 % of control.

Nc1c([N+](=O)[O-])cc([N+](=O)[O-])c2ccccc12 was tested, and the T/C (dose: 15.0 mg/kg/injection, schedule: Q01DX015 (ip), vehicle: carboxymethylcellulose (CMC)) was 91 % of control, the T/C (dose: 30.0 mg/kg/injection, schedule: Q01DX015 (ip), vehicle: carboxymethylcellulose (CMC)) was 91 % of control and the T/C [9] was 104 % of control. The T/C (dose: 60.0 mg/kg/injection, schedule: Q01DX015 (ip), vehicle: carboxymethylcellulose (CMC)) was 102 % of control, the T/C [10] was 101 % of control and the T/C (dose: 120.0 mg/kg/injection, schedule: Q01DX015 (ip), vehicle: carboxymethylcellulose (CMC)) was 98 % of control.

CC(=O)Oc1ccc(/C=N/NC(N)=S)nc1 was tested, and the T/C (dose: 24.0 mg/kg/injection, schedule: Q03HX024 (ip), vehicle: saline with Tween-80) was 212 % of control and the T/C (dose: 36.0 mg/kg/injection, schedule: Q03HX024 (ip), vehicle: saline with Tween-80) was 339 % of control.

With O=C(O)/C=C\Cl the T/C (dose: 25.0 mg/kg/injection, schedule: Q01DX009 (ip), vehicle: saline) was 104 % of control, the T/C (dose: 50.0 mg/kg/injection, schedule: Q01DX009 (ip), vehicle: saline) was 98 % of control and the T/C (dose: 100.0 mg/kg/injection, schedule: Q01DX009 (ip), vehicle: saline) was 96 % of control. The T/C (dose: 100.0 mg/kg/injection, schedule: Q04DX002 (ip), vehicle: saline) was 100 % of control and 94 % of control, the T/C (dose: 200.0 mg/kg/injection, schedule: Q04DX002 (ip), vehicle: saline) was 93 % of control and 105 % of control and the T/C (dose: 400.0 mg/kg/injection, schedule: Q04DX002 (ip), vehicle: saline) was 102 % of control.

With COc1ccc(OC)c(NC(=S)Nc2ccccc2)c1 the T/C [11] was 98 % of control, the T/C [12] was 97 % of control and the T/C [13] was 92 % of control.

For COc1cc(C2=N/C(=C\c3cc(Cl)cc(Cl)c3O)C(=O)O2)cc(OC)c1OC, the T/C [14] was 107 % of control, the T/C (dose: 200.0 mg/kg/injection, schedule: Q04DX002 (ip), vehicle: Klucel (hydroxypropylcellulose) (HPC)) was 110 % of control and the T/C (dose: 400.0 mg/kg/injection, schedule: Q04DX002 (ip), vehicle: Klucel (hydroxypropylcellulose) (HPC)) was 100 % of control.

With O=C(OC1CCCCC1c1ccccc1)c1cc([N+](=O)[O-])cc([N+](=O)[O-])c1 (configuration not stated) the T/C (dose: 100.0 mg/kg/injection, schedule: Q01DX001 (ip), vehicle: other) was 89 % of control, the T/C (dose: 200.0 mg/kg/injection, schedule: Q01DX001 (ip), vehicle: other) was 89 % of control and the T/C (dose: 400.0 mg/kg/injection, schedule: Q01DX001 (ip), vehicle: other) was 89 % of control.

With COc1cc(C=Nc2ccc3c(c2)ncn3C)ccc1N(CCCl)CCCl the T/C [14] was 153 % of control.

For Cc1cc(Cl)ccc1OC(=O)Nc1c(C)cccc1C, the T/C [11] was 101 % of control, the T/C [15] was 98 % of control and the T/C [12] was 101 % of control. The T/C [16] was 103 % of control, the T/C [13] was 89 % of control and the T/C [17] was 101 % of control.

Cc1ccc(S(=O)(=O)Oc2ccc(Cl)cc2)cc1 was tested, and the T/C [11] was 102 % of control, the T/C [15] was 105 % of control and the T/C [12] was 98 % of control. For the same compound, the T/C [16] was 97 % of control, the T/C [13] was 102 % of control and the T/C [17] was 101 % of control.

With CCOC(=O)C(C(C)=O)C(C)=O the T/C (dose: 50.0 mg/kg/injection, schedule: Q01DX001 (ip), vehicle: saline) was 101 % of control, the T/C [6] was 107 % of control and the T/C [7] was 97 % of control. The T/C [8] was 97 % of control.

In the case of O=C1/C(=C\c2ccccn2)CCCc2ccccc21, the T/C [18] is reported as 102 % of control, the T/C [19] is reported as 98 % of control and the T/C [20] is reported as 98 % of control. For the same compound, the T/C [11] was 101 % of control, the T/C [15] was 98 % of control and the T/C (dose: 100.0 mg/kg/injection, schedule: Q04DX003 (ip), vehicle: carboxymethylcellulose (CMC)) was 96 % of control. For the same compound, the T/C [12] was 100 % of control, the T/C [16] was 102 % of control and the T/C (dose: 200.0 mg/kg/injection, schedule: Q04DX003 (ip), vehicle: carboxymethylcellulose (CMC)) was 100 % of control. For the same compound, the T/C [13] was 102 % of control, the T/C [17] was 93 % of control and the T/C (dose: 400.0 mg/kg/injection, schedule: Q04DX003 (ip), vehicle: carboxymethylcellulose (CMC)) was 156 % of control. The T/C (dose: 800.0 mg/kg/injection, schedule: Q04DX003 (ip), vehicle: Klucel (hydroxypropylcellulose) (HPC)) was 104 % of control.

With O=C(O)c1ccc(CNc2ccc(C(=O)CCl)cc2)cc1 the T/C [10] was 102 % of control, the T/C [21] was 102 % of control and the T/C [22] was 118 % of control.

CC(=O)Oc1ccc(Br)cc1C=O was tested, and the T/C [10] was 100 % of control, the T/C [21] was 94 % of control and the T/C [22] was 103 % of control.

In the case of NC(c1ccccc1)c1c(O)ccc2ccccc12 (configuration not stated), the T/C (dose: 100.0 mg/kg/injection, schedule: Q01DX009 (ip), vehicle: gum acacia) is reported as 96 % of control, the T/C [3] is reported as 101 % of control and the T/C (dose: 200.0 mg/kg/injection, schedule: Q01DX009 (ip), vehicle: gum acacia) is reported as 98 % of control. The T/C [4] was 93 % of control, the T/C (dose: 400.0 mg/kg/injection, schedule: Q01DX009 (ip), vehicle: gum acacia) was 91 % of control and the T/C [5] was 98 % of control.

With FC1(F)SC2CCCCCCC2C1(F)F (configuration not stated) the T/C (dose: 12.5 mg/kg/injection, schedule: Q01DX009 (ip), vehicle: Klucel (hydroxypropylcellulose) (HPC)) was 98 % of control, the T/C (dose: 12.5 mg/kg/injection, schedule: Q04DX003 (ip), vehicle: Klucel (hydroxypropylcellulose) (HPC)) was 97 % of control and the T/C [18] was 104 % of control. The T/C (dose: 25.0 mg/kg/injection, schedule: Q04DX003 (ip), vehicle: Klucel (hydroxypropylcellulose) (HPC)) was 101 % of control, the T/C [19] was 100 % of control and the T/C [20] was 95 % of control.

For CC12CCC(C1)C(C)(C)C2OC(=O)c1ccccc1C(=O)O (configuration not stated), the T/C [9] was 103 % of control, the T/C [10] was 113 % of control and the T/C [21] was 102 % of control. The T/C [22] was 103 % of control.

With [O-][n+]1cc(-c2ccccc2)cc2ccccc21 the T/C [6] was 96 % of control.
